Assay results taken from EP0460016B1, “METASTASIS-ASSOCIATED COLLAGENOLYTIC METALLOPROTEINASES” (priority 1989, dated 1990).
Like-named read-outs stand apart in the source and are kept apart here.

Key:
[1] = tested on: Mr 64,000 proteinase; format: biochemical, rat
Procedure: (§1) Identification of type IV collagenolytic enzymes secreted by mammary adenocarcinoma cells was performed by electrophoresis of serum-free conditioned media in a type IV collagen-embedded polyacrylamide gel followed by incubation and Coomassie blue staining, based on the methods described by Heussen and Dowdle (24). Type IV procollagen was purified from Engelbreth-Holm-Sworn tumors, dissolved in 0.5 M acetic acid or bovine lens capsule type IV collagen pepsin fragments (Seikagaku America, St. Petersburg, FL) in HCl at pH 3.0, neutralized with Tris and immediately dissolved in 2% SDS. After removing undissolved materials by a brief centrifugation at 18,000 x g, SDS-solubilized type IV collagen was copolymerized with 7.5% acrylamide. In some experiments, each of the following proteins was also embedded in SDS-polyacrylamide gels: rat hemoglobin; rat immunoglobulin G; bovine serum ablumin; bovine plasma fibronectin; bovine alpha-casein; and gelatin from swine skin (Sigma Chemical, St. Louis, MO). Electrophoresis of serum, or other samples such as one obtained from conditioned media, was carried out by the method of Laemmli (25) in polyacrylamide gels containing 0.5 to 1.0 mg/ml of type IV collagen.
(§2) In the case of serum samples, serum (2.5 ul) was mixed with the same volume of sodium dodecyl sulfate sample buffer without reducing agents, and immediately subjected to electrophoresis in a 7.5% polyacrylamide gel containing the protein substrates. After electrophoresis, gels were rinsed twice with 2.5% Triton X-100 in 50 mM Tris-HCl buffer, pH 7.5, and incubated at 37`C for 16 h in 0.15 M NaCl, 10 mM CaCl₂ and 50 mM Tris-HCl buffer, pH 7.5, containing 0.05% NaN₃. Gels were stained with 0.05% Coomassie blue, 10% isopropanol, and 10% acetic acid in H₂0 and these destained with 10% isopropanol and 10% acetic acid in H₂0. Type IV collagenolytic enzymes were detected as transparent bands on the blue background of Coomassie blue-stained slab gels.
(§3) In order to conduct zymography using samples obtained by the preparation of conditioned media, the following steps were performed. Mammary adenocarcinoma cells (1 x 10⁶ cells) were seeded in a 10-cm tissue culture plate and cultured for 24 h in […] complete medium containing 10% heat-inactivated FBS. The cells were extensively washed with DPBS and then further cultured in 10 ml of serum-free complete medium. The serum-free culture supernatants were withdrawn and sequentially centrifuged at 800 x g and 18,000 x g, and then aliquots of the supernatants were concentrated with Centricon 30 concentrators (Amicon, Danvers, MA) and mixed with SDS sample buffer.

[2] = biological target: T1, Mr 88,000 proteinase (88/92 kd type IV collagenolytic metalloproteinase) (Rattus norvegicus, UniProt P50282); format: biochemical
T1 construct: type IV collagenolytic enzymes secreted by mammary adenocarcinoma cells; endogenous in cells; host or cells: rat 13762NF mammary adenocarcinoma cell clones (MTF7-T35.3, MTC, MTLn3-T44.5), serum-free conditioned medium
Procedure: as §1, §2, §3

[3] = 5 mM in incubation buffer, conditioned media from 48 h cultures
[4] = 10 mM in incubation buffer, conditioned media from 48 h cultures
[5] = 2 mM in incubation buffer, conditioned media from 48 h cultures

T1 sequence (P50282 108-708): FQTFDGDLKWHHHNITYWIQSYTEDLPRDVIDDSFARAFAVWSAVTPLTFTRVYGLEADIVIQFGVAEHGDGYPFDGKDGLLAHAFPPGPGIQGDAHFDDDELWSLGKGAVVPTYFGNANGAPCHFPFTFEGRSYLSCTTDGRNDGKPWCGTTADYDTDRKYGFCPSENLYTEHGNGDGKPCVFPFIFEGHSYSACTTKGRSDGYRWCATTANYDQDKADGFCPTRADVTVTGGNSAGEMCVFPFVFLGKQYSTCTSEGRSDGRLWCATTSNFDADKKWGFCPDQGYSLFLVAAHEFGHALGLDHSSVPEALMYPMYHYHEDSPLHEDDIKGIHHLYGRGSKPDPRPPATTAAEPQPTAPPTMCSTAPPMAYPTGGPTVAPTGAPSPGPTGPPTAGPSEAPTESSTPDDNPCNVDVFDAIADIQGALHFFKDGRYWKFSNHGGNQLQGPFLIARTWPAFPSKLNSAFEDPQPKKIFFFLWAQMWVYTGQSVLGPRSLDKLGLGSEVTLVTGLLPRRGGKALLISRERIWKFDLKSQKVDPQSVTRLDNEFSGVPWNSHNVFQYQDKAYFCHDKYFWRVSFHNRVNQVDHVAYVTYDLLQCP

In the case of `CCN1C(=O)C=CC1=O` [N-ethylmaleimide], the enzyme activity [1, 3] is reported as “did not inhibit”, the enzyme activity [2, 3] is reported as “did not inhibit” and the enzyme activity ([2]; 5 mM in incubation buffer, conditioned media from 48 h cultures, listed as NEM) is reported as “not inhibited”.

For `O=C(O)CN(CCN(CC(=O)O)CC(=O)O)CC(=O)O` [EDTA, ethylenediaminetetraacetic acid], the active enzyme bands [1] was “did not appear”, the “active enzyme bands / enzyme activity” value [2] was “did not appear” and the “active enzyme bands / enzyme activity” value ([2]; 10000 µM) was “inactive”.

In the case of `c1cnc2c(c1)ccc1cccnc12` [1,10-phenanthroline], the active enzyme bands [1, 4] is reported as “did not appear”, the “active enzyme bands / enzyme activity” value [2, 4] is reported as “did not appear” and the “active enzyme bands / enzyme activity” value ([2]; 10 mM in incubation buffer, conditioned media from 48 h cultures, listed as 1, 10-phenanthroline, 10000 µM) is reported as “inactive”.

With `O=S(=O)(F)Cc1ccccc1` [phenylmethylsulfonyl fluoride] the enzyme activity [1, 5] was “did not inhibit”, the enzyme activity [2, 5] was “did not inhibit” and the enzyme activity ([2]; 2 mM in incubation buffer, conditioned media from 48 h cultures, listed as PMSF) was “not inhibited”.
